# Measured values as given in patent publication US4399065A, “D-Phenylalanyl-L-prolyl-L-arginine aldehyde sulfate and process for the preparation thereof” (Patentbureau Danubia, priority 1981, dated 1983).
# Several values for one entry are separate records, joined by “and”; a condition that tells them apart may be missing. Equal values may be shown once.
# What was measured:
# [1] = target: T1, U.S. Standard Human Thrombin (Homo sapiens, UniProt P00734); experiment: Antithrombin activity (thrombin time) in human plasma; format: biochemical; set-up: U.S. Standard Human Thrombin; purchased NIH, Bethesda, Md., USA; details: for amount required for a twofold thrombin time increase relative to the tripeptide aldehyde sulfate: human plasma; for IC (2-fold thrombin time): pH 7.2, read-out: Amount of peptide required to increase thrombin time twofold immediately following dissolution of the peptide; for Relative activity: sulfate = 100
# Experimental: In order to simulate physiological conditions the antithrombin activity of the tripeptide aldehyde salts as well as that of the carbamic acid derivatives was tested also on human plasma in the following system:
# 0.2 ml of human citrate plasma,
# 0.1 ml of tris(hydroxymethyl)-amino-methane hydrochloride--hydrochloric acid buffer solution (pH 7.2) containing the peptide solution, and
# 0.1 ml of U.S. Standard Human Thrombin (NIH, Bethesda Md., USA), 10 Units/ml solution.
# [2] = Stability of peptide aldehyde salts/derivatives in aqueous solution and in solid form; format: physicochemical
# [3] = target: T1, U.S. Standard Human Thrombin; experiment: Antithrombin activity (thrombin time) of peptide solutions stored in isotonic salt solution, fibrinogen system; details: for Relative activity after 0 days: 10 mg/ml, 100 = fivefold relative thrombin time at 3.5 × 10^-7 M
# Experimental: In the course of our tests the peptides were dissolved in concentrations of 10 mg/ml, stored at 5° C., and the ensuing change in antithrombin activity registered for 180 days. The potency was assayed in a system containing the following components:
# 0.2 ml of 0.5 percent bovine fibrinogen in a 0.9 percent solution of sodium chloride,
# 0.1 ml of tris(hydroxymethyl)-amino-methane hydrochloride--hydrochloric acid buffer (pH 7.2) containing the peptide solution
# 0.1 ml of U.S. Standard Human Thrombin (NIH, Bethesda, Md., USA), 10 Unit/ml solution.
# The activity of the tripeptide aldehyde solution was arbitrarily set up as 100, if the reaction mixture induced a fivefold relative thrombin time at a final concentration of 3.5×10^-7 M (in the case of the tripeptide aldehyde sulfate at 0.175 μg/ml).
# [4] = tested on: thrombin time in the whole blood; experiment: In vivo trial, dog: dose required to prolong thrombin time in the whole blood 1.5 to 2.5 fold; details: thrombin time in whole blood prolonged 1.5 to 2.5 fold
# From the text: (§1) ^a The therapeutic effect is characterized by the dose required to […]
# [5] = cited from earlier work
# [6] = tested on: thrombin time in the whole blood; experiment: In vivo trial, rabbit: dose required to prolong thrombin time in the whole blood 1.5 to 2.5 fold; details: thrombin time in whole blood prolonged 1.5 to 2.5 fold
# From the text: as §1
# Acute toxicity in mice = format: in vivo; details: mouse, in vivo
# mice = experiment: Acute toxicity in mice; format: in vivo; details: acute toxicity
# [7] = Acute toxicity at intravenous infusion in the rabbit; details: in vivo
# [8] = tested on: thrombin time in the whole blood; experiment: In vivo trial of the tripeptide aldehyde derivatives, summary statements; set-up: species or system rabbit, dog; details: for oral dose at which therapeutic effect may be achieved: species not given
# From the text: as §1
# thrombin = details: known from Hungarian Pat. No. 169,870 / Belgian Pat. No. 880,844; cited from earlier work
# Solubility = format: physicochemical
# [9] = ip, mice, i.p., read-out: LD50 i.p.
# [10] = iv, mice, i.v. bolus, read-out: LD50 i.v. bolus
# [11] = po, mice, p.o., read-out: LD50 p.o.
compound,measurement,setting,value
"CC(=O)O.Cl.N=C(N)NCCC[C@@H](C=O)NC(=O)[C@@H]1CCCN1C(=O)[C@H](N)Cc1ccccc1 [D-Phe-Pro-Arg-H.2HCl, D-phenylalanyl-L-prolyl-L-arginine aldehyde acetate and hydrochloride]",amount required for a twofold thrombin time increase relative to the tripeptide aldehyde sulfate,[1],manifold
same,IC (2-fold thrombin time),[1],0.06 to 0.13 µg/mL
same,antithrombin potency upon standing in aqueous solution,[2],varying and rapidly decreasing
same,activity starting to decrease after,"[3]; isotonic salt solution, 5° C.",> 5 days
same,"Dose required for therapeutic effect, p.o., dog",[4],100 mg/kg
Heparin,activity given orally,[5]; oral,practically inactive at oral application
same,time until effect may be registered (in words),[5]; primarily i.v. infusion,"rapidly, within a short period of time"
same,Amount of peptide required to increase thrombin time twofold immediately following dissolution of the peptide,"[1]; human citrate plasma, pH 7.2, amount in the reaction mixture",0.105 µg/mL
same,Relative activity,[1]; human citrate plasma,19
same,"Dose required for therapeutic effect, i.v. infusion, rabbit",[6],0.6 mg/kg/h
same,"Dose required for therapeutic effect, s.c., rabbit",[6],5.0 mg/kg
same,"Dose required for therapeutic effect, i.v. infusion, dog",[4],0.5 mg/kg/h
same,"Dose required for therapeutic effect, s.c., dog",[4],2.0 mg/kg
N=C(N)NCCC[C@@H](C=O)NC(=O)[C@@H]1CCCN1C(=O)[C@H](N)Cc1ccccc1 [tosylate],change of antithrombin activity compared with the acetate,"[3]; isotonic salt solution, Table 1 footnote d",changing similarly to that of the acetate
N=C(N)NCCC[C@@H](C=O)NC(=O)[C@@H]1CCCN1C(=O)[C@H](N)Cc1ccccc1 [citrate],activity starting to decrease (in words),"[3]; isotonic salt solution, 5° C.",already after several days
"N=C(N)NCCC[C@@H](C=O)NC(=O)[C@@H]1CCCN1C(=O)[C@H](N)Cc1ccccc1.O=S(=O)(O)O [D-Phe-Pro-Arg-H.H2 SO4, D-Phenylalanyl-L-prolyl-L-arginine aldehyde sulfate]",Relative activity,[1]; human citrate plasma,100
same,IC (2-fold thrombin time),[1],0.02 µg/mL
same,LD50,Acute toxicity in mice; [9],230 mg/kg
same,LD50,Acute toxicity in mice; [10],45 mg/kg
same,LD50,Acute toxicity in mice; [11],> 2000 mg/kg
same,LD50,"Acute toxicity in mice; po, oral administration, read-out: acute toxicity at oral administration",2000 mg/kg
same,LD50,"Acute toxicity in mice; sc, mice, s.c., read-out: LD50 s.c.",1800 mg/kg
same,toxicity data compared with the acetate and the carbamic acid derivative,mice,more favourable than those of either the acetate or the carbamic acid derivative
same,LD50,[7],58 mg/kg
same,antithrombin potency in vivo,[8]; in vivo,significant antithrombin potency in vivo
same,efficacy at intravenous and subcutaneous application,"[8]; intravenous and subcutaneous, compared with heparin",in the range of that of heparin
same,oral dose at which therapeutic effect may be achieved,[8],25 mg/kg
same,"Dose required for therapeutic effect, i.v. infusion, rabbit",[6],1.0 mg/kg/h
same,"Dose required for therapeutic effect, p.o., rabbit",[6],25 mg/kg
same,"Dose required for therapeutic effect, s.c., rabbit",[6],6.0 mg/kg
same,Relative activity after 0 days,"[3]; isotonic salt solution, 5° C.",100
same,retaining its antithrombin activity,"[3]; isotonic salt solution, 5° C.",≥ 90 days
same,IC (5-fold thrombin time),"[3]; pH 7.2, read-out: final concentration inducing a fivefold relative thrombin time (activity set up as 100)",0.35 µM and 0.175 µg/mL
same,stable in aqueous medium,"[3]; prolonged stability trials, aqueous medium",≥ 180 days
same,failed to lose activity in solid form,[3]; solid form,≥ 6 months
same,"Dose required for therapeutic effect, i.v. infusion, dog",[4],0.5 mg/kg/h
same,"Dose required for therapeutic effect, p.o., dog",[4],25 mg/kg
same,"Dose required for therapeutic effect, s.c., dog",[4],6.0 mg/kg
"CC(=O)O.N=C(N)NCCC[C@@H](C=O)NC(=O)[C@@H]1CCCN1C(=O)[C@H](N)Cc1ccccc1 [D-Phe-Pro-Arg-H.2 CH3 COOH, D-phenylalanyl-L-prolyl-L-arginine aldehyde acetate]",amount required for a twofold thrombin time increase relative to the tripeptide aldehyde sulfate,[1],manifold
same,IC (2-fold thrombin time),[1],0.065 to 0.14 µg/mL
same,thrombin inhibition,thrombin,potent thrombin inhibitors
same,antithrombin potency upon standing in aqueous solution,[2],varying and rapidly decreasing
same,LD50,Acute toxicity in mice; [9],38 mg/kg
same,LD50,Acute toxicity in mice; [10],9 mg/kg
same,LD50,Acute toxicity in mice; [11],960 mg/kg
same,"Dose required for therapeutic effect, p.o., rabbit",[6],100 mg/kg
same,activity starting to decrease (in words),"[3]; isotonic salt solution, 5° C.",already after several days
same,"Dose required for therapeutic effect, p.o., dog",[4],100 mg/kg
"N=C(NCCC[C@@H](C=O)NC(=O)[C@@H]1CCCN1C(=O)[C@H](N)Cc1ccccc1)NC(=O)O [D-Phe-Pro-Arg/COOH/-H, D-phenylalanyl-L-prolyl-N^G -carboxy-L-arginine aldehyde]",Relative activity,[1]; human citrate plasma,45
same,amount required for a twofold thrombin time increase relative to the tripeptide aldehyde sulfate,[1],twofold
same,IC (2-fold thrombin time),[1],0.042 µg/mL
same,thrombin inhibition,thrombin,potent thrombin inhibitors
same,potency after several days,"[2]; aqueous buffer solution, after several days",significant reduction in potency
same,activity after several months in solid form,"[2]; solid form, after several months",loss of original activity even in solid form
same,LD50,Acute toxicity in mice; [11],1200 mg/kg
same,oral dose at which therapeutic effect may be achieved,[8],50 mg/kg
same,"Dose required for therapeutic effect, p.o., rabbit",[6],50 mg/kg
same,"Dose required for therapeutic effect, s.c., rabbit",[6],10.0 mg/kg
same,Relative activity after 0 days,"[3]; isotonic salt solution, 5° C.",100
same,activity starting to decrease (in words),"[3]; isotonic salt solution, 5° C.",already after several days
same,solubility,Solubility,poor solubility
same,"Dose required for therapeutic effect, i.v. infusion, dog",[4],3.0 mg/kg/h
same,"Dose required for therapeutic effect, p.o., dog",[4],50 mg/kg
same,"Dose required for therapeutic effect, s.c., dog",[4],6.0 mg/kg
